Assay results: patent US8859235B2, “Methods in cell cultures, and related inventions, employing certain additives” (priority 2009, dated 2014)

How the values were obtained:
E. coli BL21 = test: Growth and GFPuv expression in E. coli BL21 (DE3), shake flask batch culture in complex medium; format: cell-based, Escherichia coli
Experimental: (§1) The measurement of GFP expression by whole cell fluorescence measurements follows the procedure of Scholz et al. (Eur. J. Biochem., 2000,267, 1565-1570). Frozen cell pellets are thawed, resuspended in 1 mL PBS [NaCl (8 g/L), KCl (0.2), of Na2HPO4 (1.44), KH2PO4 (0.24), adjusted to pH 7.4] and subsequently diluted to an optical density of 0.1. GFP fluorescence of whole cells is measured in a Eclipse Fluorometer (Varian) with an excitation wavelength of 400 nm and an emission wavelength of 512 nm. Specific relative fluorescence [RFU/OD600] is calculated by dividing the relative fluorescence emmision units by the optical density of the suspension at 600 nm.
Precultures are prepared in 250 mL baffled shake flasks containing 25 mL sterile LB medium [Tryptone (10.0 g/L), yeast extract (5.0), NaCl (10.0), kanamycin 30 (mg/L); adjusted to pH 7.0 with NaOH]. Cultures are inoculated with 250 μL of a glycerol stock stored at −80° C. of E. coli BL21 [Novagen, Madison, USA; Genotype: E ompT hsdSB (rB^− mB^−) gal dcm (DE3)] harboring the plasmid pET28a-GFPuv which is obtained by inserting the GFPuv gene (isolated from pBAD-GFPuv through PCR) into the EcoRI site of pET28a (Novagen, Madison, USA) which placed the GFPuv gene under the control of the T7/Lac promotor system. Precultures are incubated at 37° C. for 10-12 h.
Experimental cultures are performed in a volume of 25 mL of the above described medium in 250 mL baffled shake flasks. Stabilizers are added to a final concentration of 5 mM as indicated from sterile stock solutions. Cultures are started by inoculating with the preculture to an OD600 at 600 nm of 0.25. Samples are taken for OD600 measurements. Cultures are induced by adding IPTG (Isopropyl-β-D-thiogalactoside) to a final concentration of 0.5 mM when the OD600 reaches 0.5. Samples of 1 mL are taken after induction for OD600 reading and GFP quantification. For GFP quantification 1 mL of the culture is harvested after 2-4 h and after 20 h after induction. Cells are collected by centrifugation at 16 000 g and the cell pellet is stored at −20° C. for further analysis. Analysis of in vivo GFP fluorescence is performed by the method described in Example 1.

E. coli HM125 = test: Growth and expression of FimH-CRD in E. coli HM125, shake flask cultivation in mineral medium; format: cell-based, Escherichia coli; settings: for mg FimH/g cell: control 0.81; for FimH / Cell pellet: mean of triplicate; for FimH: control 6.48 ± 0.36; for Cell pellet: control 7.99 ± 0.25
Excerpt: Standard molecular techniques are used for the cloning of the FimH carbohydrate recognition domain (FimH-CRD). The plasmid pfimHs-trc, encoding FimH lectin domain (1-156 amino acids M. Vetsch P et. al. 2002—J. Mol. Biol. 322: 827-840), is kindly provided by R. Glockshuber (ETH Zürich, Switzerland). The FimH-CRD fragment is amplified by polymerase chain reaction using specific forward primer containing the restriction site NdeI and a specific reverse primer containing the thrombin cleavage site and the restriction site XhoI, respectively. The insert is ligated into the corresponding cloning site in pET21b. The resulting contrast is named pET21b-FimH-CRD.
Precultures are prepared in 25 mL sterile LB medium [Tryptone (10.0 g/L), yeast extract (5.0 g/L), NaCl (10.0 g/L), ampicillin 100 (mg/L); adjusted to pH 7.0 with NaOH]. Cultures are inoculated with a glycerol stock stored at −80° C. of the protease deficient strain E. coli HM125 (Meerman H J & Georgiou G. 1994. Biotechnology (NY) 2, 1107-1110) harboring the plasmid pET21b-FimH-CRD Vector. Precultures are incubated at 37° C. for 10-12 h. Experimental cultures are performed in a volume of 500 mL of modified M9 medium [Na2HPO4×7H2O (12.8 g/L), KH2PO4 (3 g/L), NaCl (0.5 g/L), NH4Cl (1 g/L), D-glucose (4 g/L), MgSO4 (0.12 g/L), CaCl2 (0.01 g/L) and vitamins (in mg/L): riboflavin (0.1), choline chloride (1), folic Acid (1), niacinamide (1), p-amino benzoic acid (1), pyridoxal-HCl (1), thiamine-HCl (1), myo-lnositol (2)] supplemented with 100 mg/L ampicillin. Cultures are inoculated with 5 mL of the preoculture and grown at 30° C. and 150 rpm) until the optical density at 600 nm (0D600) reached 0.8-1.0. Then 1 mM IPTG and the stabilizer(s) (obligatory additive) according to the invention are added to final concentrations of 5, 10 and 20 mM as indicated from sterile stock solutions and the cultures are grown overnight. Then the cells are cooled on ice for 5 min and harvested by centrifugation at 5′000 rpm for 20 min at 4° C. Cell are harvested by centrifugation and biomass is quantified by weighing the wet cell pellets. The pellet is suspended in a cold solution of 50 mM Tris-HCl, pH 7.5, 150 mM NaCl, 5 mM EDTA, 1 mg/mL polymyxin B sulfate and stirred for two hours at 4° C. After centrifugation at 11′000 rpm for 20 min at 4° C., the supernatant (periplasmic extract) is dialyzed overnight against 50 mM NaH2PO4, 300 mM NaCl and 10 mM imidazole, pH 8 (binding buffer) and applied to a Ni-NTA column (Sigma, Buchs, Switzerland) attached to a BioLogic fast protein liquid chromatography system (BioRad, Reinach BL, Switzerland). The column is washed with binding buffer and afterwards eluted with 50 mM NaH2PO4, 300 mM NaCl and 250 mM imidazole, pH 8 (elution buffer). Fractions containing FimH-CRD-Th-6H is are pooled and dialyzed against water and then against 20 mM HEPES, 150 mM NaCl and 1 mM CaCl2, pH 7.4.
The concentration of protein is determined by HPLC method (Agilent 1100/1200 series) using BSA as standard (Sigma). The column Poros R1/10 10 μm (100×2 mm, Morvay Analytik) is kept at 60° C.; eluents are A: 0.1% trifluoroacetic acid (TFA) in H2O and B: 90% MeCN+0.09% TFA. A gradient of 20% B to 90% B is run within 20 min at a flow rate of 0.2 mL/min. The detection is monitored at 210 nm. Results are compiled in the following tables 5 and 6.

E. coli JM109 [1] = test: Growth and GFP expression in high cell density fedbatch cultivation of E. coli JM109 in mineral medium; format: cell-based, Escherichia coli; settings: for Optical density Value / GFP expression (RFU/OD600) Value: additive 5 mM; for GFP expression Factor / Optical density Factor: relative to control = 1
Experimental: as §1
A first preculture of E. coli JM109 harboring the plasmid pBAD-GFPuv is initiated from glycerol stocks stored at −80° C. in 3 mL of LB medium containing 0.01% (v/v) Antifoam A (Fluka). After growth for 10-12 h it is used to seed 2×100 mL of mineral medium (as described in Example 1) containing 0.01% Antifoam A (silicone fluid containing a suspension of finely powdered silica to enhance its defoaming efficiency; Dow Corning Corporation, Midland, Mich., USA), in 1 L baffled shake flasks. After 10-12 h this culture is centrifuged resuspended in 50 mL mineral medium and is used to inoculate the main culture.
Cultivation is performed in BioFlow110 bioreactors (Total volume 2.2 L; New Brunswick Scientific, Nürtingen, Germany) filled with 1 L of mineral medium plus 0.01% (v/v) Antifoam A for the batch phase. Reactors are equipped with pH, pO2 and foam probes, mass flow controllers to control gas flow and ratio of air and pure oxygen and pumps for automated dosage of base (14% [v/v] aqueous NH3), antifoam (25% [v/v] Antifoam A) and nutrient feed solution. The agitation is set to 500 rpm and air is supplied at a gas flow rate of 2 L/min. The fedbatch culture is incoculated to an OD600 of 0.25-0.5 and allowed to grow unlimited with a specific growth rate of ˜0.5 h^−1. Growth is monitored by measuring OD600. When the disolved oxygen concentration decreases to 30%, automated adjustment of the air:oxygen ratio in the gas mix is started to control dO2 to 30% using a PID loop. When the gas mix consisted of 100% oxygen a further increase in oxygen transfer is achieved through increasing the agitation rate up to a maximum level of 1200 rpm. When glycerol in the batch medium is completely consumed, as indicated by a distinct drop of pure oxygen in the gas mix, feeding solutions (first containing 70 g/L glycerol and later as cell density increased 200 g/L glycerol in mineral medium) are pumped into the reactor by a predefined exponential fed scheme. The feeding rate is calculated to allow the cells to grow at a growth rate of approximately 0.15 h^−1. During the feeding phase dO2 is also kept at 30%. 3-6 h after starting the feeding protein expression is induced by the addition of 0.2 (w/v) L-arabinose. Samples are taken every hour for OD600 reading and to obtain cell pellets which are stored at −20° C. for further analysis. Analysis of in vivo GFP fluorescence is performed by the method described in Example 1.

E. coli JM109 [2] = test: Growth and GFPuv expression in E. coli JM109, shake flask cultivation in mineral medium; format: cell-based, Escherichia coli; settings: additive 5 mM, 20 h, mean of two
Experimental: Precultures are prepared in 250 mL baffled shake flasks containing 25 mL sterile mineral medium [macronutrients in g/L: Glycerol (25), (NH4)2-citrate (1.0), Na2HPO4 2H2O (9.0), KH2PO4 (1.82), NH4Cl (1.52), MgSO4 (0.12), (NH4)2SO4 (0.6); Ampicillin ([…]); micronutrients in mg/L: Na2-EDTA (8.4), thiamine (4.5), Fe(III) citrate (12.5), Na2MoO4 2×H2O (2.5), H3BO3 (3), CoCl2 6×H2O (2.5), CuSO4 5×H2O (0.45) MnCl24×H2O (15), ZnCl2 (8) adjusted to pH 7.0]. Cultures are inoculated with 250 μL of a glycerol stock stored at −80° C. of E. coli JM109 (Promega Inc, Wallisellen, C H; Genotype: endA1, recA1, gyrA96, thi, hsdR17 (rk^−, mk^+), re/A1, supE44, Δ(lac-proAB), [F″ traD36, proAB, laql^qZΔM15]) harboring the plasmid pBAD-GFPuv (Biorad Inc., Reinach, C H; Genbank U62637.1, containing the GFPuv gene under control of the ara promoter; GFP=Green Fluorescent Protein). Precultures are incubated at 37° C. for 10-12 h.
Experimental cultures are performed in a volume of 25 mL of the above described medium in 250 mL baffled shake flasks. Stabilizers according to the invention are added to a final concentration of 5 mM as indicated from sterile stock solutions. Cultures are started by inoculating with the preculture to an optical density at 600 nm (OD600) of 0.25. Growth of the culture is monitored by reading optical density at 600 nm. Cultures are induced by adding L-arabinose to a final concentration of 0.2% (w/v) when the OD600 reaches 0.5. Samples of 1 mL are taken 6 and 20 h after induction for OD600 reading and GFP quantification. For GFP quantification 1 mL of the culture is harvested after 2-4 h and after 20 h after induction. Cells are collected by centrifugation at 16 000 g and the cell pellet is stored at −20° C. for further analysis.
as §1

P. pastoris = settings: 4-10 mM in the medium; Xiao, Appl. Microbiol. Biotechnol. (2006); cited from earlier work
[3] = Experiment 6, process time 24.75 h
[4] = Experiment 7, process time 17 h

For CC1(C)CC(O)CC(C)(C)N1O [1,4-dihydroxy-2,2,6,6-tetramethylpiperidine], the “Growth (Final OD600)” value (E. coli BL21; Experiment 2, additive 5 mM, 20 h after induction, control 3.3) was 3.19 OD600, the “GFP expression (Relative fluorescence unit*OD600^−1)” value (E. coli BL21; Experiment 2, additive 5 mM, 20 h after induction, control 195) was 222 Relative fluorescence unit*OD600^−1 and the “Effect on GFPuv expression and growth, in words” value (E. coli BL21; comment on Table 2) was “shows at least some effect and is not detrimental”. The “mg FimH/g cell” value (E. coli HM125; additive 5 mM) was 1.1 mg FimH/g cell, the “FimH” value (E. coli HM125; additive 5 mM) was 9.1 ± 0.56 mg/L and the “Cell pellet” value (E. coli HM125; additive 5 mM) was 8.22 ± 0.35 g/L. For the same compound, the “mg FimH/g cell” value (E. coli HM125; additive 10 mM) was 1.22 mg FimH/g cell, the “FimH” value (E. coli HM125; additive 10 mM) was 9.59 ± 0.49 mg/L and the “Cell pellet” value (E. coli HM125; additive 10 mM) was 7.86 ± 0.25 g/L. For the same compound, the “mg FimH/g cell” value (E. coli HM125; additive 20 mM) was 1.26 mg FimH/g cell, the “FimH” value (E. coli HM125; additive 20 mM) was 10.08 ± 0.66 mg/L and the “Cell pellet” value (E. coli HM125; additive 20 mM) was 7.94 ± 0.33 g/L.
With CC1(C)CC(O)CC(C)(C)N1 [4-Hydroxy-2,2,6,6-tetramethyl-piperidine] the “Optical density Value” (E. coli JM109 [1]; Experiment 6, process time 24.75 h, control 10.3) was 24.7, the “GFP expression (RFU/OD600) Value” (E. coli JM109 [1]; Experiment 6, process time 24.75 h, control 1038) was 5507 RFU/OD600 and the “GFP expression Factor” value (E. coli JM109 [1]; [3]) was 5.3. For the same compound, the “Optical density Factor” value (E. coli JM109 [1]; [3]) was 2.39, the “Optical density Value” (E. coli JM109 [1]; Experiment 7, process time 17 h, control 56.4) was 57.1 and the “GFP expression (RFU/OD600) Value” (E. coli JM109 [1]; Experiment 7, process time 17 h, control 5765) was 6438 RFU/OD600. For the same compound, the “GFP expression Factor” value (E. coli JM109 [1]; [4]) was 1.12, the “Optical density Factor” value (E. coli JM109 [1]; [4]) was 1.01 and the “Growth (Final OD600)” value (E. coli JM109 [2]; Experiment 2, control 11.0) was 10.9 OD600. The “GFP expression (Relative fluorescence unit*OD600^−1)” value (E. coli JM109 [2]; Experiment 2, control 1423) was 1646 Relative fluorescence unit*OD600^−1.
In the case of O=C1O[C@H]([C@@H](O)CO)C(O)=C1O [Ascorbic acid], the “Hirudin yield and quality” value (P. pastoris) is listed as “increased”.
For “Tris(tetramethylhydroxypiperidinol) citrate”, the “Growth (Final OD600)” value (E. coli JM109 [2]; Experiment 3, control 10.4) was 11.4 OD600 and the “GFP expression (Relative fluorescence unit*OD600^−1)” value (E. coli JM109 [2]; Experiment 3, control 1189) was 2675 Relative fluorescence unit*OD600^−1.
